Patent US20080318943A1, “Compounds and Uses Thereof - 848” (ASTRAZENECA AB, priority 2007, published 2008)

Tests used:
[1] = target: T1, GABAA2 receptors (α2, β3, γ2 receptor subunits transfected into Sf9 cells) (Homo sapiens, UniProt P18507+P47869); experiment: GABAA2 Binding Method ([3H]-Flunitrazepam displacement); details: [3H]-Flunitrazepam ~2 nM, α2β3γ2 Sf9 membranes, 1 hr at 4° C.
T1 construct: host or cells: Sf9 cells (membranes)
Summary of the method: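 Membranes from Sf9 cells expressing α2β3γ2 GABAA receptors incubated with ~2 nM (final) [3H]-flunitrazepam and test compound 1 h at 4 °C, then filtered on GF/B plates with cold-buffer washes. Flumazenil-defined controls; percent of control, IC50 and Ki calculated.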

GABAA receptor α1β2γ2 = target: T2, GABAA receptor α1β2γ2 (Homo sapiens, UniProt P14867+P18507); experiment: Two-electrode voltage-clamp potentiation of GABA EC10 current in Xenopus oocytes, GABAA1; type: cell-based; details: percentage potentiation of GABA EC10 current divided by that of diazepam
T2 construct: expressed in transfected cells; host or cells: Xenopus laevis oocytes injected with cRNA
Summary of the method: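 Human GABAA receptors expressed in Xenopus oocytes by cRNA injection (α:β:γ molar ratio ~1:1:10 for α1β2γ2, 1:1:1 for α2β3γ2), recorded 2-10 days later by two-electrode voltage clamp at −60 mV in ND-96, pH 7.5. Modulator preapplied 30 s before GABA at per-oocyte EC10. Peak-current percent potentiation over GABA alone, normalised to diazepam.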

GABAA receptor α2β3γ2 = target: T3, GABAA receptor α2β3γ2 (Homo sapiens, UniProt P18507+P47869); experiment: Two-electrode voltage-clamp potentiation of GABA EC10 current in Xenopus oocytes, GABAA2; type: cell-based; details: percentage potentiation of GABA EC10 current divided by that of diazepam
T3 construct: expressed in transfected cells; host or cells: Xenopus laevis oocytes injected with cRNA
Protocol: GABAA receptors were heterologously expressed in Xenopus oocytes by injecting cRNA corresponding to human α1, α2, α3, α5, β2, P3 and γ2 subunits of the GABAA receptor genes. The specific subunit combinations (subtypes) were as follows: α1β2γ2, α2β3γ2, α3β3γ2, and α5β3γ2. The EC10 of GABA is approximated for each cell. Stability of GABA-mediated (EC10) current is established. Modulatory effect of test compound is determined and compared across subtypes. […] Thus, the assay can characterize modulatory effects and determine subtype selectivity of test compounds on major subtypes of GABAA receptors.
Xenopus laevis frogs (Xenopus I, Kalamazoo, Mich.) were anesthetized using 0.15% tricaine. Surgically removed ovarian lobes were teased out in OR2 solution (82 NaCl, 2.5 KCl, 5 HEPES, 1.5 NaH2PO4, 1 MgCl2, 0.1 EDTA, in mM, pH 7.4). The oocytes were defolliculated by incubation in 25 mL OR2 containing 0.2% collagenase 1A (SIGMA) two times for about 60 minutes on a platform shaker and stored in Leibovitz's L-15 medium. Oocytes were injected the following day in 0.5× Leibovitz's L-15 medium containing […] gentamycin, 10 units/ml penicillin, and […] streptomycin.
Capped cRNAs from the linearized vectors containing human α1, β2 and γ2 subunits of the GABAA receptor genes were mixed in ratio of […]. Oocytes were injected with 25-50 nL of mixed RNA with an appx molar ratio for α1, β2, and γ2 as 1:1:10. Oocyte recordings were done 2-10 days after injection. The same methods apply to subtypes derived from α2β3γ2, α3β3γ2, and α5β3γ2, except for 1:1:1 ratio was used for α, β, and γ subunits.
All measurements were done in a medium containing ND-96 (96 NaCl, 2 KCl, 1.8 CaCl2.2H2O, 1 MgCl2.6H2O, 5 HEPES, in mM, pH 7.5). Two-electrode voltage-clamp recording was carried out using OpusXpress amplifier (Axon Instruments, Foster City, Calif.), which allows simultaneous recording from 8 oocytes. Oocytes were impaled with two electrodes of 1-2 MΩ tip resistance when filled with 3M KCl. Recordings were begun when membrane potential became stable at potentials negative to −50-−60 mV. Membrane potential was held at −60 mV. […] The concentration of GABA corresponded to the EC10 value calculated for each oocyte. The modulator pulses started 30 s before the GABA pulse so as to allow preincubation with the modulator. A set of 3 pulses with just GABA without modulator was given prior to the modulator-containing pulses to define the baseline GABA response. Two oocytes per each experiment were dedicated to observe the effect of diazepam on GABA response to ensure the presence of γ2 subunit in the GABAA pentameric complex, which imparts diazepam sensitivity to the complex.
Current amplitude (i) was measured from baseline to peak using Clampfit (Axon Inst., Foster City, Calif.). Potentiation was calculated as percent change from the baseline GABA current flux 100×(imod/icontrol)−1) where imod=current mediated by modulator+GABA and icontrol=current mediated by GABA alone. […] Similarly, a value of −50% potentiation means the presence of modulator caused a 50% decrease in the control current. Various other data shown here were fitted and plotted using GraphPad Prism (GraphPad Software, Inc. San Diego, Calif.). The percentage potentiation was converted to relative potentiation by dividing it with percentage potentiation value obtained from the same assay with diazepam as a control.

T1 sequence (P47869 29-451): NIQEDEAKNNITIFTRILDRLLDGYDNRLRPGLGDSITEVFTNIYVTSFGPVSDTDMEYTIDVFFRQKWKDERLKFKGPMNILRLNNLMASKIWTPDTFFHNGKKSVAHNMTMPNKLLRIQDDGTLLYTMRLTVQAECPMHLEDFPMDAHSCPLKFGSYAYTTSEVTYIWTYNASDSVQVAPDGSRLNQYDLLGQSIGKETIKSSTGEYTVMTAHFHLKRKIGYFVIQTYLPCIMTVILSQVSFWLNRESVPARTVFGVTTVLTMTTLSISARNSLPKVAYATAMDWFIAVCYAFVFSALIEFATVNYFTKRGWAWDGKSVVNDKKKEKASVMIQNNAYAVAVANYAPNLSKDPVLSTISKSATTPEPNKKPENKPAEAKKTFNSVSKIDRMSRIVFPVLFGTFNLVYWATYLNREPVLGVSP
T1 sequence (P28472 26-473 partner): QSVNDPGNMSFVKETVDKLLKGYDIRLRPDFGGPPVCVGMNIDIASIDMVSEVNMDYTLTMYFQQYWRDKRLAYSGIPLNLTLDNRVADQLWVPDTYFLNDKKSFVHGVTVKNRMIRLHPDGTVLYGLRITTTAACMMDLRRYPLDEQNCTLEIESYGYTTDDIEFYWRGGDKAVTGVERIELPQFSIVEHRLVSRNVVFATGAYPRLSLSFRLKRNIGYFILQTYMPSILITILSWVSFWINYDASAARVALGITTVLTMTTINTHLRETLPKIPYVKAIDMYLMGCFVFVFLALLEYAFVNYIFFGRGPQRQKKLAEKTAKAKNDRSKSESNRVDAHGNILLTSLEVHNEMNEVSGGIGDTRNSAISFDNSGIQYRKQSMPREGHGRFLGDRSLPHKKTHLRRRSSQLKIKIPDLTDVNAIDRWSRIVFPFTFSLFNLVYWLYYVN
T1 sequence (P18507 40-475): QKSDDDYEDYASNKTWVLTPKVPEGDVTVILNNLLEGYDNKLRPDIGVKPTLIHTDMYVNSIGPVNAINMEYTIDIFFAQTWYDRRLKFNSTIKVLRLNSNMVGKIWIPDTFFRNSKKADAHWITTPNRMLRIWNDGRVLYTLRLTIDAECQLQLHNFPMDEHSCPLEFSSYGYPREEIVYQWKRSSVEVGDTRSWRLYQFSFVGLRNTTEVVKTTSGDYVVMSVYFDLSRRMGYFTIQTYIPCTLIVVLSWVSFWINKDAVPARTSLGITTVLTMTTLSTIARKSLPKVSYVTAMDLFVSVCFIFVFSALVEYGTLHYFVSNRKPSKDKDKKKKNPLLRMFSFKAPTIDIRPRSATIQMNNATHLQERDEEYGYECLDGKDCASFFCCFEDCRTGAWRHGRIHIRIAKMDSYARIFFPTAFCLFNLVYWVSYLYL
T3 sequence (P47869 29-451): as the sequence (P47869 29-451) above
T3 sequence (P28472 26-473 partner): as the sequence (P28472 26-473 partner) above
T3 sequence (P18507 40-475): as the sequence (P18507 40-475) above
T2 sequence (P14867 28-456): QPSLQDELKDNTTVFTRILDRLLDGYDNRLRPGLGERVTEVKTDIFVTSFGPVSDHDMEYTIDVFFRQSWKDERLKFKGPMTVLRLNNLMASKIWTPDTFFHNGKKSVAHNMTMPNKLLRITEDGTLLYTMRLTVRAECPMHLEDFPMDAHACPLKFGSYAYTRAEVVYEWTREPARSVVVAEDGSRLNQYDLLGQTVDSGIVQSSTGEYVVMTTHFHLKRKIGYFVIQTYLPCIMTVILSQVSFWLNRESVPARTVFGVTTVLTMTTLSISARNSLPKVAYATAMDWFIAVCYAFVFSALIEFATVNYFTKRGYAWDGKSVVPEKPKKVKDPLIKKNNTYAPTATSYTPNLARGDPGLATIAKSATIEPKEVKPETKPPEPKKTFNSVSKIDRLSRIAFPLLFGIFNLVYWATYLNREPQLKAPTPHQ
T2 sequence (P47870 25-512 partner limits assumed): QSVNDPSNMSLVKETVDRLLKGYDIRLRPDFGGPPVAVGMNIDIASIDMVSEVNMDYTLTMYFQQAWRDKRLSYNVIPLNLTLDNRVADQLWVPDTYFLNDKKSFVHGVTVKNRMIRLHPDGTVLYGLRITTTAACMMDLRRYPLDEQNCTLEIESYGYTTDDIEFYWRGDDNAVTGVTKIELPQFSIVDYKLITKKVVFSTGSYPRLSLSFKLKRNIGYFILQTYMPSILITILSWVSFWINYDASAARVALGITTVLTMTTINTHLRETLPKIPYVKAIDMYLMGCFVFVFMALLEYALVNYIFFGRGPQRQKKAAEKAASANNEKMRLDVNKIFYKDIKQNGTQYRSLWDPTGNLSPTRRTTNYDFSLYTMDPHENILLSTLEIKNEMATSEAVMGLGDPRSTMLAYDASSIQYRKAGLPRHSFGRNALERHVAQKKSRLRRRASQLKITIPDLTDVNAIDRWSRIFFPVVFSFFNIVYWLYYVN
T2 sequence (P18507 40-475): as the sequence (P18507 40-475) above

SMILES | Ki [1] [nM] | Relative Potentiation for GABAA1 (GABAA receptor α1β2γ2) | Relative Potentiation for GABAA2 (GABAA receptor α2β3γ2)
Cc1ccc(-c2cccc3c(N)c4c(nc23)CN(C2CCC2)C4=O)nc1 [9-Amino-2-cyclobutyl-5-(5-methylpyridin-2-yl)-2,3-dihydropyrrolo[3,4-b]quinolin-1-one] | 12.7 | 0.088 | 0.13
Cc1cc(-c2cccc3c(N)c4c(nc23)CN(C2CCC2)C4=O)cnc1F [9-Amino-2-cyclobutyl-5-(6-fluoro-5-methylpyridin-3-yl)-2,3-dihydropyrrolo[3,4-b]quinolin-1-one] | 8.54 | 0.018 | 0.2
COc1ncc(-c2cccc3c(N)c4c(nc23)CN(C2CCC2)C4=O)cc1C [9-Amino-2-cyclobutyl-5-(6-methoxy-5-methylpyridin-3-yl)-2,3-dihydropyrrolo[3,4-b]quinolin-1-one] | 4.61 | 0.029 | 0.16
COc1cccc(-c2cccc3c(N)c4c(nc23)CN(C2CCC2)C4=O)n1 [9-Amino-2-cyclobutyl-5-(6-methoxypyridin-2-yl)-2,3-dihydropyrrolo[3,4-b]quinolin-1-one] | 1.48 | 0.085 | 0.16
Nc1c2c(nc3c(-c4ccc(N5CCOCC5)nc4)cccc13)CN(C1CCC1)C2=O [9-Amino-2-cyclobutyl-5-(6-morpholin-4-yl-pyridin-3-yl)-2,3-dihydropyrrolo[3,4-b]quinolin-1-one] | 8.81 | −0.025 | 0.12
Nc1c2c(nc3c(-c4ncccn4)cccc13)CN(C1CCC1)C2=O [9-Amino-2-cyclobutyl-5-pyrimidin-2-yl-2,3-dihydropyrrolo[3,4-b]quinolin-1-one] | 8.3 | 0.013 | 0.12
COc1ccc(F)c(-c2c(F)ccc3c(N)c4c(nc23)CN(C2CCC2)C4=O)c1 [9-Amino-2-cyclobutyl-6-fluoro-5-(2-fluoro-5-methoxyphenyl)-2,3-dihydropyrrolo[3,4-b]quinolin-1-one] | 0.333 | 0.025 | 0.26
Nc1c2c(nc3c(-c4cccnc4F)c(F)ccc13)CN(C1CCC1)C2=O [9-Amino-2-cyclobutyl-6-fluoro-5-(2-fluoropyridin-3-yl)-2,3-dihydropyrrolo[3,4-b]quinolin-1-one] | 0.246 | 0.018 | 0.19
C=Cc1ccccc1-c1c(F)ccc2c(N)c3c(nc12)CN(C1CCC1)C3=O [9-Amino-2-cyclobutyl-6-fluoro-5-(2-vinylphenyl)-2,3-dihydropyrrolo[3,4-b]quinolin-1-one] | 1.68 | 0.11 | 0.11
COc1cnccc1-c1c(F)ccc2c(N)c3c(nc12)CN(C1CCC1)C3=O [9-Amino-2-cyclobutyl-6-fluoro-5-(3-methoxypyridin-4-yl)-2,3-dihydropyrrolo[3,4-b]quinolin-1-one] | 0.185 | 0.02 | 0.27
COc1ccc(F)cc1-c1c(F)ccc2c(N)c3c(nc12)CN(C1CCC1)C3=O [9-Amino-2-cyclobutyl-6-fluoro-5-(5-fluoro-2-methoxyphenyl)-2,3-dihydropyrrolo[3,4-b]quinolin-1-one] | 0.333 | 0.11 | 0.26

Continued, values first:

Ki [1] [nM] | Relative Potentiation for GABAA1 (GABAA receptor α1β2γ2) | Relative Potentiation for GABAA2 (GABAA receptor α2β3γ2) | SMILES
2.39 | 0.13 | 0.31 | Cc1nc(F)ccc1-c1cccc2c(N)c3c(nc12)CN(C1CCC1)C3=O [9-Amino-2-cyclobutyl-5-(6-fluoro-2-methylpyridin-3-yl)-2,3-dihydropyrrolo[3,4-b]quinolin-1-one]
5.03 | −0.0033 | 0.2 | COc1ccc(-c2cccc3c(N)c4c(nc23)CN(C2CCC2)C4=O)c(C)n1 [9-Amino-2-cyclobutyl-5-(6-methoxy-2-methylpyridin-3-yl)-2,3-dihydropyrrolo[3,4-b]quinolin-1-one]
6.48 | −0.035 | 0.14 | COc1ccc(-c2cccc3c(N)c4c(nc23)CN(C2CCC2)C4=O)cn1 [9-Amino-2-cyclobutyl-5-(6-methoxypyridin-3-yl)-2,3-dihydropyrrolo[3,4-b]quinolin-1-one]
4.44 | −0.13 | 0.21 | Cc1ccc(-c2cccc3c(N)c4c(nc23)CN(C2CCC2)C4=O)cn1 [9-Amino-2-cyclobutyl-5-(6-methylpyridin-3-yl)-2,3-dihydropyrrolo[3,4-b]quinolin-1-one]
11.3 | −0.066 | 0.11 | Nc1c2c(nc3c(-c4cnccn4)cccc13)CN(C1CCC1)C2=O [9-Amino-2-cyclobutyl-5-pyrazin-2-yl-2,3-dihydropyrrolo[3,4-b]quinolin-1-one]
4.66 | 0.061 | 0.12 | Nc1c2c(nc3c(-c4ccccn4)cccc13)CN(C1CCC1)C2=O [9-Amino-2-cyclobutyl-5-pyridin-2-yl-2,3-dihydropyrrolo[3,4-b]quinolin-1-one]
1.35 | 0.079 | 0.17 | Nc1c2c(nc3c(-c4ccncc4)cccc13)CN(C1CCC1)C2=O [9-Amino-2-cyclobutyl-5-pyridin-4-yl-2,3-dihydropyrrolo[3,4-b]quinolin-1-one]
0.122 | 0.028 | 0.18 | COc1cccc(-c2c(F)ccc3c(N)c4c(nc23)CN(C2CCC2)C4=O)c1F [9-Amino-2-cyclobutyl-6-fluoro-5-(2-fluoro-3-methoxyphenyl)-2,3-dihydropyrrolo[3,4-b]quinolin-1-one]
1.56 | −0.047 | 0.2 | COc1ccccc1-c1c(F)ccc2c(N)c3c(nc12)CN(C1CCC1)C3=O [9-Amino-2-cyclobutyl-6-fluoro-5-(2-methoxyphenyl)-2,3-dihydropyrrolo[3,4-b]quinolin-1-one]
0.847 | −0.01 | 0.28 | COc1ncccc1-c1c(F)ccc2c(N)c3c(nc12)CN(C1CCC1)C3=O [9-Amino-2-cyclobutyl-6-fluoro-5-(2-methoxypyridin-3-yl)-2,3-dihydropyrrolo[3,4-b]quinolin-1-one]
1.2 | 0.0067 | 0.15 | COc1cc(F)ccc1-c1c(F)ccc2c(N)c3c(nc12)CN(C1CCC1)C3=O [9-Amino-2-cyclobutyl-6-fluoro-5-(4-fluoro-2-methoxyphenyl)-2,3-dihydropyrrolo[3,4-b]quinolin-1-one]
